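Method: 48-hour compound exposure of cells in 96-well plates, five concentrations, linear interpolation of endpoints. GI50 is the concentration that inhibits growth by half. TGI denotes the concentration required for complete inhibition of growth.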
How the values were obtained:
Experiment in all cases: NCI anticancer screen, dose series, 48 h
SK-MEL-5 melanoma = system: SK-MEL-5 melanoma
OVCAR-3 ovarian = system: OVCAR-3 ovarian
MDA-MB-231 breast = system: MDA-MB-231 breast
KM12 colon = system: KM12 colon
786-0 renal = system: 786-0 renal
DU-145 prostate = system: DU-145 prostate
UO-31 renal = system: UO-31 renal
SK-MEL-28 melanoma = system: SK-MEL-28 melanoma
CCRF-CEM leukemia = system: CCRF-CEM leukemia
HL-60(TB) leukemia = system: HL-60(TB) leukemia

SMILES | TGI (SK-MEL-5 melanoma) | TGI (OVCAR-3 ovarian) | TGI (MDA-MB-231 breast) | TGI (KM12 colon) | TGI (786-0 renal) | TGI (DU-145 prostate) | TGI (UO-31 renal) | TGI (SK-MEL-28 melanoma) | TGI (CCRF-CEM leukemia) | TGI (HL-60(TB) leukemia) | GI50 (SK-MEL-5 melanoma) | GI50 (OVCAR-3 ovarian) | GI50 (MDA-MB-231 breast) | GI50 (KM12 colon) | GI50 (786-0 renal) | GI50 (DU-145 prostate) | GI50 (UO-31 renal) | GI50 (SK-MEL-28 melanoma) | GI50 (CCRF-CEM leukemia) | GI50 (HL-60(TB) leukemia)
CC(C)c1[nH]nc(C(N)=O)c1N=NN(C)C | > 100 µM | > 100 µM | > 100 µM | > 100 µM | > 100 µM | > 100 µM | 2.19 µM | > 100 µM | > 100 µM | > 100 µM | – | – | – | – | – | – | – | – | – | –
CC(=O)Nc1ccc2c(c1)C(c1ccccc1Cl)=Nc1c(n[nH]c1C)N2 | > 25 µM | > 25 µM | > 25 µM | > 25 µM | > 25 µM | > 25 µM | > 22.5 µM | > 25 µM | > 25 µM | > 25 µM | 17.6 µM | 9.06 µM | > 17.1 µM | 0.253 µM | 7.79 µM | > 22.8 µM | 5.63 µM | > 23.5 µM | 12.2 µM | 14.8 µM
COc1ccc(C/C(=N/O)C(=O)NCCc2cc(Br)c(OCCCN(C)C)c(Br)c2)cc1Br | – | 40.4 µM | – | 34.9 µM | 48.1 µM | – | 42.3 µM | 35.2 µM | – | 28.1 µM | – | – | – | – | – | – | – | – | – | –
CN1C(=O)CCC1(O)C1C=CC=CC1 (stereo not given) | > 100 µM | > 100 µM | – | > 100 µM | > 100 µM | – | > 100 µM | > 100 µM | > 100 µM | > 100 µM | – | – | – | – | – | – | – | – | – | –
O=C1NC(Cc2ccc(O)cc2)C(=O)N2CCCC12 (stereo not given) | > 100 µM | > 100 µM | – | > 100 µM | > 100 µM | – | > 100 µM | > 100 µM | > 100 µM | > 100 µM | – | – | – | – | – | – | – | – | – | –
Cn1c2c(c3ccccc31)CCN(CCCCN1CCCCC1)C2=O | > 100 µM | > 100 µM | – | – | > 100 µM | – | > 100 µM | > 100 µM | > 100 µM | > 100 µM | – | – | – | – | – | – | – | – | – | –
N#Cc1c(-c2ccc(Cl)c(Cl)c2)c(-c2ccc(Cl)c(Cl)c2)nn(CC(=O)O)c1=O | > 100 µM | 77.4 µM | – | > 100 µM | > 100 µM | – | > 100 µM | > 100 µM | > 100 µM | > 100 µM | – | – | – | – | – | – | – | – | – | –
Cn1cc(C(=O)c2ccccc2)c2ccccc2c1=O | > 100 µM | > 100 µM | – | > 100 µM | > 100 µM | – | – | > 100 µM | > 100 µM | > 100 µM | – | – | – | – | – | – | – | – | – | –
COc1ccc(NC(=O)C(=O)c2c(O)c3ccc(O)cc3oc2=O)c([N+](=O)[O-])c1 | > 100 µM | > 100 µM | – | > 100 µM | > 100 µM | – | > 100 µM | > 100 µM | > 100 µM | > 100 µM | – | – | – | – | – | – | – | – | – | –
CCN(CCCN(C)C)Cc1cc(I)cc(C)c1O | 31.5 µM | > 100 µM | 91 µM | 44.7 µM | 40 µM | > 100 µM | > 100 µM | 36.3 µM | – | 41.5 µM | 17.6 µM | 26.7 µM | 26.8 µM | 20 µM | 18.6 µM | 36.8 µM | 35.6 µM | 18 µM | – | 20 µM

— PubChem BioAssay (NCI)
